Values joined by “and” are separate entries in the source; they are usually repeats but may differ in a detail not shown here. Equal entries are not always repeated.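 Interpolation was linear, between the two tested concentrations surrounding the appropriate level; five concentrations were tested over 48 hours in 96-well plates. The concentration for 50% growth inhibition is given as GI50. TGI: concentration producing complete growth inhibition.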
Assays:
Assay in all cases: DTP human tumour cell line panel, 48 h
[1] = test system: HCT-15 colon
[2] = test system: HS 578T breast
[3] = test system: IGROV1 ovarian
[4] = test system: K-562 leukemia
[5] = test system: MCF7 breast
[6] = test system: NCI-H460 lung
[7] = test system: OVCAR-3 ovarian
[8] = test system: OVCAR-8 ovarian
[9] = test system: SK-MEL-28 melanoma
[10] = test system: T-47D breast

SMILES | TGI [1] [µM] | TGI [2] [µM] | TGI [3] [µM] | TGI [4] [µM] | TGI [5] [µM] | TGI [6] [µM] | TGI [7] | TGI [8] [µM] | TGI [9] [µM] | TGI [10] [µM] | GI50 [1] [nM] | GI50 [2] [µM] | GI50 [6] [nM] | GI50 [7] [nM] | GI50 [10] [nM] | GI50 [3] [µM] | GI50 [4] [µM] | GI50 [8] [nM] | GI50 [9] [µM] | GI50 [5] [nM]
Cc1c(NC(=O)Nc2c(Cl)cccc2Cl)c(=O)n(-c2ccccc2)n1C | > 100 | > 100 | > 100 | > 100 | > 100 | > 100 | > 100 µM | > 100 | > 100 | > 100 | – | – | – | – | – | – | – | – | – | –
COc1cccc2c(SCC(=O)Nc3ccccc3-c3ccccc3NC(=O)CSc3c4ccccc4nc4c(OC)cccc34)c3ccccc3nc12 | > 100 | – | > 100 | > 100 | – | > 100 | > 100 µM | > 100 | > 100 | – | – | – | – | – | – | – | – | – | – | –
O=C(O)/C(Cl)=C(Cl)/C=N/NC(=O)c1cc2ccccc2cc1O | > 100 | – | > 100 | > 100 | – | > 100 | > 100 µM | > 100 | > 100 | – | – | – | – | – | – | – | – | – | – | –
Cc1ccc(C)c(NC(=O)C(=O)C2C(=O)N(c3ccccc3)N=C2N)c1 (configuration not stated) | > 100 | – | > 100 | > 100 | – | > 100 | > 100 µM | > 100 | > 100 | – | – | – | – | – | – | – | – | – | – | –
CCn1cc(C(=O)N/N=C/c2cccs2)c(=O)c2cc(F)c(N3CCNC(C)C3)c(F)c21 (configuration not stated) | 2.82 | 35.9 | – | – | – | 3.24 | 3.35 µM | – | – | 3.45 | 1470 | 14.1 | 1750 | 1800 | 1680 | – | – | – | – | –
C=CCC(N[C@H](CO)c1ccccc1)c1ccccn1 (some centres not stated) | > 100 | > 100 | > 100 | > 100 | – | – | > 100 µM | > 100 | > 100 | > 100 | > 100000 | > 100 | – | > 100000 | > 100000 | 88.2 | > 100 | > 100000 | > 100 | –
COc1ccc(NC(=O)c2oc3cc(O)ccc3c(=O)c2C)c([N+](=O)[O-])c1 | > 100 | – | > 100 | > 100 | – | > 100 | > 100 µM | > 100 | > 100 | – | – | – | – | – | – | – | – | – | – | –
Cn1c2c(c3ccccc3c1=O)C(=O)c1ccccc1-2 | > 100 | > 100 | > 100 | > 100 | > 100 | – | > 100 µM | > 100 | > 100 | > 100 | – | – | – | – | – | – | – | – | – | –
COc1cc(C2c3cc4c(cc3[C@@H](Nc3ccc([N+](=O)[O-])cc3)C3COC(=O)[C@H]23)OCO4)cc(OC)c1O (some centres not stated) | 19.6 | – | 24.3 | 39.4 | > 43.1 | 2.14 | 17.3 µM | 11 | 34.8 | – | – | – | 65.8 | – | – | – | – | 981 | – | –
COc1ccc(/C=C\c2cc(OC)c(OC)c(OC)c2)cc1OC(=O)CC(N)C(=O)O (configuration not stated) | – | 0.00314 | > 100 | > 100 | – | – | 0.00528 µM and 0.00484 µM and 0.0193 µM | – | > 100 | – | 0.452 | 0.00262 | 0.48 | 0.506 | – | 0.00355 | 0.000493 | 1.95 | 0.000728 | 24.4
CCCCCN(CCCCC)C(=O)[C@H](CCC(=O)O)NC(=O)c1cc2ccccc2[nH]1 | > 100 | – | > 100 | > 100 | – | > 100 | > 100 µM | > 100 | 96.4 | – | – | – | – | – | – | – | – | – | – | –
C[C@]12Cc3conc3C(O)=C1CC[C@@H]1C2CC[C@@]2(C)C1CC[C@]2(C)O (some centres not stated) | > 100 | – | 62.2 | 87.8 | – | 36.3 | 80.7 µM | 61.3 | 83 | – | – | – | – | – | – | – | – | – | – | –
COC(=O)C(=O)C(C(C)=O)C(=O)NCc1ccccc1 (configuration not stated) | > 100 | – | > 100 | > 100 | – | > 100 | > 100 µM | > 100 | > 100 | – | – | – | – | – | – | – | – | – | – | –
CC(=O)[CH-]C(=O)c1ccccc1.CC(=O)[CH-]C(=O)c1ccccc1.CC[C@H](/C=C/C(C)[C@H]1CCC2[C@@H]3CC=C4C[C@@H]([O-])CC[C@]4(C)C3CC[C@@]21C)C(C)C.CC[C@H](/C=C/C(C)[C@H]1CCC2[C@@H]3CC=C4C[C@@H]([O-])CC[C@]4(C)C3CC[C@@]21C)C(C)C.Cl.[Ti+4] (some centres not stated) | > 25 | – | > 25 | > 25 | – | > 25 | > 25 µM | > 25 | > 25 | – | > 25000 | – | > 25000 | > 25000 | – | > 25 | > 25 | > 25000 | 6.08 | –
N#CC(C(=N/O)/C(=N\O)C(C#N)c1ccccc1)c1ccccc1 (configuration not stated) | > 100 | – | > 100 | > 100 | – | > 100 | > 100 µM | > 100 | > 100 | – | – | – | – | – | – | – | – | – | – | –
Cc1cc(Cl)ccc1N=C1NC(=O)C(CC(=O)Nc2cccc(C)c2C)S1 (configuration not stated) | > 100 | – | > 100 | > 100 | – | > 100 | > 100 µM | 75.9 | > 100 | – | – | – | – | – | – | – | – | – | – | –
O=C1NC2(CCCCC2)C2CCCCC=C12 (configuration not stated) | > 100 | – | > 100 | > 100 | – | > 100 | > 100 µM | > 100 | > 100 | – | – | – | – | – | – | – | – | – | – | –
CC(=O)c1ccc2c3c1[C@H]1O[C@H]1c1cccc(c1-3)[C@@H]1O[C@H]21 | 4.12 | 4.95 | 0.294 | > 35.2 | > 33.5 | – | 12.1 µM | 3.49 | 5.96 | 6.55 | – | – | – | – | – | – | – | – | – | –
CCCCCCCCC(C)CCCCCCCCC(=O)OCC(COP(=O)([O-])OCC[N+](C)(C)C)OC(=O)CCCCCCCCC(C)CCCCCCCC (configuration not stated) | > 100 | – | > 100 | > 100 | – | > 100 | > 100 µM | > 100 | > 100 | – | – | – | – | – | – | – | – | – | – | –
Nn1c(-c2cccc(Cl)c2)nc2ccccc2c1=O | > 100 | – | > 100 | > 100 | – | > 100 | > 100 µM | > 100 | > 100 | – | – | – | – | – | – | – | – | – | – | –
COC(=O)C12C34C=CC5(CCC6(C=CC1(CC3)O6)C52C(=O)OC)O4 (configuration not stated) | – | – | > 100 | > 100 | – | > 100 | – | > 100 | > 100 | – | – | – | – | – | – | – | – | – | – | –
O=C(COC(=O)c1cccc2c(=O)c3ccccc3[nH]c12)Nc1ccc(Cl)cc1 | – | – | > 100 | > 100 | – | > 100 | > 100 µM | > 100 | > 100 | – | – | – | – | – | – | – | – | – | – | –

Reference: PubChem BioAssay (NCI)
